Data set [1] addresses ATP-dependent translocase ABCB1 (Homo sapiens, UniProt P08183). Put plainly: Modulation of Pgp (P-glycoprotein) mediated multidrug resistance in CEM / VLB 1000 cell line. The class given is functional, cell-based, CCRF-CEM. As to conditions: read-out: ED50 (the source's name).
Data set [2] can be described thus: Half life in Dog plasma at a dosage 5 mg/kg after intravenous administration. The class given is ADME, organism-based, Canis lupus familiaris. Also on record: dose 5 mg/kg, route intravenous.
The test system of a further data set is Canis familiaris. The data set can be described thus: (§1) Oral bioavailability in dog (dose 10 mg/kg). As to conditions: Canis lupus familiaris. The class given is functional, organism-based.
The next data set deals with Homo sapiens. The data set can be described thus: Compound concentration in plasma of healthy human (male) after 3-4h of 400 mg dose of compound given orally. The class given is functional.
Data set [3] can be described thus: as §1. As to conditions: in vivo. The class given is ADME, organism-based, Canis lupus familiaris.

SMILES strings stand for the structures.

A word on the half-life: it is the time needed for the level to fall by half in the phase considered.

Sequence of ATP-dependent translocase ABCB1 (P08183 whole entry): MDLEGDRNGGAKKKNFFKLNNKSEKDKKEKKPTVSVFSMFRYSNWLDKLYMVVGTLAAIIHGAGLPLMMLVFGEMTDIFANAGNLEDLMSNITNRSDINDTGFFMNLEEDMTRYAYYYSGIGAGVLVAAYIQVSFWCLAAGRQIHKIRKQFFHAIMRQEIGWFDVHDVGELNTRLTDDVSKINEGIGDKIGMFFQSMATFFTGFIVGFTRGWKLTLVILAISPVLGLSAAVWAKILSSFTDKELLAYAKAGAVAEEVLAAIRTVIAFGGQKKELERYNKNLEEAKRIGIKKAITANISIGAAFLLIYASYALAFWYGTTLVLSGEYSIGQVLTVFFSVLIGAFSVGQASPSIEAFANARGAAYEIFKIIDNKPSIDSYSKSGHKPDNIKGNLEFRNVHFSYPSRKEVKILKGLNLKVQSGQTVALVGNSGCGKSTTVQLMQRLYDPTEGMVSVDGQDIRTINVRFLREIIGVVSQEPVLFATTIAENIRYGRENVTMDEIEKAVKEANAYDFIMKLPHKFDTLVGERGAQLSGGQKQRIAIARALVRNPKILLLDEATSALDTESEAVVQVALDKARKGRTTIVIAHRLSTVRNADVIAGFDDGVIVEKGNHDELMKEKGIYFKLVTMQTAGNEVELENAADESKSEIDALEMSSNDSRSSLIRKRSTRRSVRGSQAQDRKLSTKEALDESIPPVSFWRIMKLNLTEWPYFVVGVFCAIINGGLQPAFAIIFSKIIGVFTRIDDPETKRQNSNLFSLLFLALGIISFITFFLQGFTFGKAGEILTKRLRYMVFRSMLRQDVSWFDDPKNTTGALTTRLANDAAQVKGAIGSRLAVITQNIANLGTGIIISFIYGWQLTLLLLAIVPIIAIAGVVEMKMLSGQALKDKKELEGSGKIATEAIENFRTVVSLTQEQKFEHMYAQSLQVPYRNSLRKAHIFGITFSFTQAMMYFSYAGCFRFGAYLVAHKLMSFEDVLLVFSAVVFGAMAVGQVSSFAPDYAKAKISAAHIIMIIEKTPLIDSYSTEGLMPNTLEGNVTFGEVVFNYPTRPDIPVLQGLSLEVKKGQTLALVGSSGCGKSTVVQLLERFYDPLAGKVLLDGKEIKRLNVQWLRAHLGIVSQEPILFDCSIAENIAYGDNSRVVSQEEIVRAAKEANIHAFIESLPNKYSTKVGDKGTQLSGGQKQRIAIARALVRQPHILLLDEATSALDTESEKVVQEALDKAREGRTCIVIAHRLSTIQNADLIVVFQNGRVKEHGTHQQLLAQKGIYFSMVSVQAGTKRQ

Turning to `C=CCN(CC=C)c1ccc(-c2nc(-c3ccc(/C=C/C(=O)OC)cc3)[nH]c2-c2ccc(N(CC=C)CC=C)cc2)cc1`, the EC50 in data set [1] is 5500 nM. Same read-out and setting: under `CCOC/C=C/c1ccc(-c2nc(-c3ccc(N(CC)CC)cc3)c(-c3ccc(N(CC)CC)cc3)[nH]2)cc1` stands 260 nM; under `CCOC/C=C/c1ccc(-c2nc(-c3ccc(NC)cc3)c(-c3ccc(N4CCCC4)cc3)[nH]2)cc1`, 150 nM; under `CCOC/C=C/c1ccc(-c2nc(-c3ccc(N4CCOCC4)cc3)c[nH]2)cc1`, 370 nM. Same read-out and setting: to `CCCN(CCC)c1ccc(-c2c[nH]c(-c3ccc(/C=C/COCC)cc3)n2)cc1` belongs 280 nM; to `CCOC/C=C/c1ccc(-c2nc(-c3ccc(N(CC)CC)cc3)c[nH]2)cc1`, 300 nM. The same measure, in the same setting: to `CCOC/C=C/c1ccc(-c2nc(-c3ccc(NCC(C)C)cc3)c[nH]2)cc1` belongs 250 nM.

Take `CCOC/C=C/c1ccc(-c2nc(-c3ccc(F)cc3)c(-c3ccc(NC(C)C)cc3)[nH]2)cc1`: the half-life in data set [2] was 1.27 h. In the data set with Canis familiaris, this molecule gave a bioavailability of 45%. For the same molecule, in data set [1], the EC50 worked out at 160 nM.

Take `CNc1ccc(-c2nc(-c3ccc(/C=C/C(=O)OC)cc3)[nH]c2-c2ccc(NC)cc2)cc1`: the EC50 in data set [1] came out at 200 nM. On the same count and under the same terms, under `CCOC/C=C/c1ccc(-c2nc(-c3ccc(NC(C)C)cc3)c[nH]2)cc1` stands 340 nM; under `COC(=O)/C=C/c1ccc(-c2nc(-c3ccc(N)cc3)c(-c3ccc(N(C)C)cc3)[nH]2)cc1`, 590 nM; under `CCCN(CCC)c1ccc(-c2[nH]c(-c3ccc(/C=C/C(=O)OC)cc3)nc2-c2ccc(NC)cc2)cc1`, 180 nM. The same measure, in the same setting: under `CNc1ccc(-c2[nH]c(-c3ccc(/C=C/C(=O)OC)cc3)nc2-c2ccc(N(C)C)cc2)cc1` stands 130 nM; under `COC(=O)/C=C/c1ccc(-c2nc(-c3ccc(N4CCCC4)cc3)c(-c3ccc(N4CCCC4)cc3)[nH]2)cc1`, 370 nM.

With `CCN(CC)c1ccc(-c2[nH]c(-c3ccc(/C=C/C(=O)OC)cc3)nc2-c2ccc(NC)cc2)cc1`, in data set [1], the EC50 was determined as 70 nM.

In the case of `CNc1ccc(-c2[nH]c(-c3ccc(/C=C/C(=O)OC)cc3)nc2-c2ccc(NC(C)C)cc2)cc1`, in data set [1], the EC50 was 120 nM. The same measure, in the same setting: to `CCCCN(CCCC)c1ccc(-c2[nH]c(-c3ccc(/C=C/C(=O)OC)cc3)nc2-c2ccc(NC)cc2)cc1` belongs 2100 nM; to `CCNc1ccc(-c2[nH]c(-c3ccc(/C=C/COCC)cc3)nc2-c2ccc(NC(C)C)cc2)cc1`, 50 nM; to `CNc1ccc(-c2[nH]c(-c3ccc(/C=C/CCOC)cc3)nc2-c2ccc(N(C)C)cc2)cc1`, 110 nM. Still for that read-out and setting: to `CCOCC/C=C/c1ccc(-c2nc(-c3ccc(NC)cc3)c(-c3ccc(N(CC)CC)cc3)[nH]2)cc1` belongs 60 nM. On to `CCOC/C=C/c1ccc(-c2nc(-c3ccc(NC(C)C)cc3)c(-c3ccc(NC(C)C)cc3)[nH]2)cc1`, for which the half-life in data set [2] was 2.79 h. Moreover, in the data set with Homo sapiens, the Concentration was 3 µM. This molecule came in with a bioavailability with Canis familiaris of 41%. Moreover, in data set [1], the EC50 came to 50 nM. `CCOC/C=C/c1ccc(-c2nc(-c3ccc(N(C)C)cc3)c(-c3ccc(N(C)C)cc3)[nH]2)cc1` showed a half-life in data set [2] of 0.5 h. Also, in data set [1], the EC50 turned out to be 80 nM. In data set [3], this molecule yielded a bioavailability of 35%. Turning to `CCN(CC)c1ccc(-c2[nH]c(-c3ccc(/C=C/C(=O)OC)cc3)nc2-c2ccc(N)cc2)cc1`, the EC50 in data set [1] stood at 310 nM. The same measure, in the same setting: to `CCOC/C=C/c1ccc(-c2nc(-c3ccc(N4CCOCC4)cc3)c(-c3ccc(N4CCOCC4)cc3)[nH]2)cc1` belongs 220 nM; to `COC(=O)/C=C/c1ccc(-c2nc(-c3ccc(N(C)C)cc3)c(-c3ccc(N(C)C)cc3)[nH]2)cc1`, 300 nM. For the molecule `CCOC/C=C/c1ccc(-c2nc(-c3ccc(NC(C)C)cc3)c(-c3ccc(NC)cc3)[nH]2)cc1`, the half-life in data set [2] was 1.35 h. In the data set on Canis familiaris, the bioavailability is 36%. The EC50 in data set [1] was found to be 50 nM.

Turning to `CCN(CC)c1ccc(-c2nc(-c3ccc(/C=C/C(=O)OC)cc3)[nH]c2-c2ccc(N(CC)CC)cc2)cc1`, the EC50 in data set [1] was 570 nM.
